The values below are quoted from earlier work in US20070141150A1, “Pharmaceutical composition” (priority 2003, published 2007).

For orientation: Hill coefficient means the slope factor of the fitted curve.

Molecules are shown by their SMILES. Where a name gives a salt, the structure may show the parent alone.

The conditions of this data set: interaction between propranolol and the polyanionic methacrylic acid copolymer.

For the compound `CC(C)NCC(O)COc1cccc2ccccc12` (stereo not shown) [propranolol, propranolol hydrochloride], the Hill coefficient was 1.5.
